Laboratory results reported in PubChem BioAssay (NCI).
Values joined by “and” are separate entries in the source; they are usually repeats but may differ in a detail not shown here. Equal entries are not always repeated.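 In this assay, cells in 96-well plates receive the compound at five concentrations for 48 hours. Endpoints are linearly interpolated between the surrounding concentrations. At the GI50, growth is halved. The concentration for full growth arrest is given as TGI.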

How the values were obtained:
Test in all cases: NCI tumour cell line growth inhibition, 48 h
786-0 renal = tested on: 786-0 renal
A498 renal = tested on: A498 renal
A549 NSCLC = tested on: A549 NSCLC
ACHN renal = tested on: ACHN renal
CAKI-1 renal = tested on: CAKI-1 renal
COLO 205 colon = tested on: COLO 205 colon
DLD-1 colon = tested on: DLD-1 colon
DMS 114 small cell lung = tested on: DMS 114 small cell lung
DMS 273 small cell lung = tested on: DMS 273 small cell lung
EKVX NSCLC = tested on: EKVX NSCLC
HCC-2998 colon = tested on: HCC-2998 colon
HCT-15 colon = tested on: HCT-15 colon
HL-60(TB) leukemia = tested on: HL-60(TB) leukemia
HOP-62 NSCLC = tested on: HOP-62 NSCLC
HOP-92 NSCLC = tested on: HOP-92 NSCLC
HS 578T breast = tested on: HS 578T breast
HT29 colon = tested on: HT29 colon
IGROV1 ovarian = tested on: IGROV1 ovarian
K-562 leukemia = tested on: K-562 leukemia
KM12 colon = tested on: KM12 colon
M19-MEL melanoma = tested on: M19-MEL melanoma
MALME-3M melanoma = tested on: MALME-3M melanoma
MDA-MB-231 breast = tested on: MDA-MB-231 breast
MOLT-4 leukemia = tested on: MOLT-4 leukemia
NCI-H226 lung = tested on: NCI-H226 lung
NCI-H23 lung = tested on: NCI-H23 lung
NCI-H460 lung = tested on: NCI-H460 lung
NCI-H522 lung = tested on: NCI-H522 lung
NCI/ADR-RES ovarian = tested on: NCI/ADR-RES ovarian
OVCAR-4 ovarian = tested on: OVCAR-4 ovarian
OVCAR-5 ovarian = tested on: OVCAR-5 ovarian
OVCAR-8 ovarian = tested on: OVCAR-8 ovarian
P388 leukemia = tested on: P388 leukemia
P388/ADR leukemia = tested on: P388/ADR leukemia
PC-3 prostate = tested on: PC-3 prostate
RPMI-8226 leukemia = tested on: RPMI-8226 leukemia
RXF 393 renal = tested on: RXF 393 renal
SF-295 CNS = tested on: SF-295 CNS
SK-MEL-2 melanoma = tested on: SK-MEL-2 melanoma
SK-MEL-28 melanoma = tested on: SK-MEL-28 melanoma
SK-MEL-5 melanoma = tested on: SK-MEL-5 melanoma
SK-OV-3 ovarian = tested on: SK-OV-3 ovarian
SN12C renal = tested on: SN12C renal
SNB-19 CNS = tested on: SNB-19 CNS
SNB-75 CNS = tested on: SNB-75 CNS
SNB-78 CNS = tested on: SNB-78 CNS
SR leukemia = tested on: SR leukemia
SW-620 colon = tested on: SW-620 colon
T-47D breast = tested on: T-47D breast
TK-10 renal = tested on: TK-10 renal
U251 CNS = tested on: U251 CNS
UACC-257 melanoma = tested on: UACC-257 melanoma
UACC-62 melanoma = tested on: UACC-62 melanoma
UO-31 renal = tested on: UO-31 renal

Structure (SMILES): COc1ccc2c(c1)c1c(C)c3cnccc3c(C)c1n2CCCN
- TGI (786-0 renal): 634 nM
- GI50 (A498 renal): 317 nM
- TGI (A498 renal): 856 nM and 885 nM
- GI50 (A549 NSCLC): 18.6 nM
- TGI (ACHN renal): 695 nM
- GI50 (CAKI-1 renal): 130 nM and 164 nM
- TGI (CAKI-1 renal): 491 nM and 806 nM
- GI50 (COLO 205 colon): 82.2 nM
- TGI (COLO 205 colon): 751 nM and 259 nM
- TGI (DLD-1 colon): 741 nM
- TGI (DMS 114 small cell lung): 669 nM
- TGI (DMS 273 small cell lung): 382 nM
- GI50 (EKVX NSCLC): 106 nM
- TGI (EKVX NSCLC): 771 nM and 405 nM
- GI50 (HCC-2998 colon): 75.3 nM
- TGI (HCC-2998 colon): 1200 nM and 225 nM
- GI50 (HCT-15 colon): 62.4 nM
- TGI (HCT-15 colon): 473 nM and 955 nM
- GI50 (HL-60(TB) leukemia): 450 nM and 238 nM
- TGI (HL-60(TB) leukemia): 977 nM and 1020 nM
- GI50 (HOP-62 NSCLC): 18.7 nM
- TGI (HOP-62 NSCLC): 984 nM and 279 nM
- GI50 (HOP-92 NSCLC): 352 nM
- TGI (HOP-92 NSCLC): 739 nM and 1130 nM
- TGI (HS 578T breast): 953 nM
- GI50 (HT29 colon): < 11.4 nM
- TGI (HT29 colon): 734 nM and 182 nM
- GI50 (IGROV1 ovarian): 136 nM
- TGI (IGROV1 ovarian): 1320 nM and 1180 nM
- GI50 (K-562 leukemia): 71.2 nM and 13.9 nM
- TGI (K-562 leukemia): 637 nM and 382 nM
- GI50 (KM12 colon): 79.8 nM and 29.8 nM
- TGI (KM12 colon): 483 nM and 213 nM
- TGI (M19-MEL melanoma): 633 nM
- GI50 (MALME-3M melanoma): 225 nM
- TGI (MALME-3M melanoma): 1420 nM and 609 nM
- TGI (MDA-MB-231 breast): 381 nM
- TGI (MOLT-4 leukemia): 578 nM and 139 nM
- GI50 (NCI-H226 lung): 558 nM and 416 nM
- TGI (NCI-H226 lung): 1300 nM and 1600 nM
- TGI (NCI-H23 lung): 601 nM
- GI50 (NCI-H460 lung): 19.9 nM
- TGI (NCI-H460 lung): 282 nM and 135 nM
- GI50 (NCI-H522 lung): 85.3 nM
- TGI (NCI-H522 lung): 763 nM and 242 nM
- GI50 (NCI/ADR-RES ovarian): 217 nM
- TGI (NCI/ADR-RES ovarian): 696 nM and 759 nM
- GI50 (OVCAR-4 ovarian): 16.1 nM
- TGI (OVCAR-4 ovarian): 394 nM and 143 nM
- GI50 (OVCAR-5 ovarian): 94.6 nM
- TGI (OVCAR-5 ovarian): 1120 nM and 542 nM
- GI50 (OVCAR-8 ovarian): 105 nM
- TGI (OVCAR-8 ovarian): 741 nM and 892 nM
- TGI (P388 leukemia): 98.7 nM
- TGI (P388/ADR leukemia): 725 nM
- TGI (PC-3 prostate): 302 nM
- GI50 (RPMI-8226 leukemia): 93.1 nM and 89.4 nM
- TGI (RPMI-8226 leukemia): 443 nM and 555 nM
- GI50 (RXF 393 renal): 145 nM
- TGI (RXF 393 renal): 168 nM and 307 nM
- GI50 (SF-295 CNS): 147 nM
- TGI (SF-295 CNS): 621 nM and 1000 nM
- GI50 (SK-MEL-2 melanoma): 193 nM
- TGI (SK-MEL-2 melanoma): 815 nM and 393 nM
- TGI (SK-MEL-28 melanoma): 892 nM and 1100 nM
- GI50 (SK-MEL-5 melanoma): 282 nM
- TGI (SK-MEL-5 melanoma): 746 nM and 1060 nM
- GI50 (SK-OV-3 ovarian): 202 nM
- TGI (SK-OV-3 ovarian): 1140 nM and 713 nM
- GI50 (SN12C renal): 170 nM
- TGI (SN12C renal): 916 nM and 1010 nM
- GI50 (SNB-19 CNS): 33.7 nM
- TGI (SNB-19 CNS): 1440 nM and 512 nM
- GI50 (SNB-75 CNS): 64 nM
- TGI (SNB-75 CNS): 791 nM and 206 nM
- TGI (SNB-78 CNS): 653 nM
- TGI (SR leukemia): 118 nM
- GI50 (SW-620 colon): < 10 nM
- TGI (SW-620 colon): 584 nM and 602 nM
- TGI (T-47D breast): 760 nM
- TGI (TK-10 renal): 2750 nM
- GI50 (U251 CNS): 171 nM and 34 nM
- TGI (U251 CNS): 721 nM and 383 nM
- TGI (UACC-257 melanoma): 1000 nM and 1690 nM
- GI50 (UACC-62 melanoma): 263 nM
- TGI (UACC-62 melanoma): 950 nM and 778 nM
- GI50 (UO-31 renal): 12.5 nM
- TGI (UO-31 renal): 1360 nM and 168 nM
